The assay concerns the target Neuropeptide FF receptor 1 (Homo sapiens, UniProt Q9GZQ6). Description: Competitive antagonist activity at human NPFF1 receptor expressed in COS1 cells assessed as inhibition of NPVF-induced [3H]inositol phosphate accumulation after 2 hrs by liquid scintillation counting.

Neuropeptide FF receptor 1, sequence (Q9GZQ6 whole entry): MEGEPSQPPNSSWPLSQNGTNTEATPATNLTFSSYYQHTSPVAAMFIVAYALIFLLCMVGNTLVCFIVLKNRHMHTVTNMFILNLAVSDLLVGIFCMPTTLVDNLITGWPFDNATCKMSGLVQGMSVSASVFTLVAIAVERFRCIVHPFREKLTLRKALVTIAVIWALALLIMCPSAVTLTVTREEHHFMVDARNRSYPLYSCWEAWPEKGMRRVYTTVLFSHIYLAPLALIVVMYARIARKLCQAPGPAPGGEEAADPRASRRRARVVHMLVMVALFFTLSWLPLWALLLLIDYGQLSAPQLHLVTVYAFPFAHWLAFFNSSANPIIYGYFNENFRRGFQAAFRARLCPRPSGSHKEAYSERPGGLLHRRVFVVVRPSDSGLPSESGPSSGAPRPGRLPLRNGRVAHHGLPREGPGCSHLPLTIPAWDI

With `NC(N)=NN=CC12CC3CC(CC(C3)C1)C2`, the equilibrium dissociation constant (Kd) is 41.7 nM.

The record behind these values is BindingDB's records for doi:10.1021/jm300535s (Leipzig University, 2012).
